Laboratory results from EP1163907A1, “Use of l-threo-methylphenidate for the treatment of depression” (Pharmaquest Limited, priority 2000, dated 2001).
Like-named read-outs stand apart in the source and are kept apart here. Marks after values point to notes of the source that are not given here.

Legend:
[1] = Balanced, randomized 4-phase cross-over study, Profile of Mood State (POMS) rating scale after intravenous administration; format: in vivo, healthy male volunteers; conditions: for composite "Dysphoria" ratings: POMS Anger-Hostility plus Depression plus Tension-Anxiety, compared with placebo, Figure 3; for vigor ratings: POMS Vigor-Activity, compared with 1-MPH and placebo, Figure 2; for effect on "Energy": POMS composite score (Vigor-Activity minus Fatigue-Inertia), Figure 1; for rank order of ratings of the three components of "Dysphoria" (Tension, Depression and Anger): four treatments, same order for each component, Figure 4
Description: A balanced, randomized 4-phase cross-over study was carried out in 12 healthy male volunteers who each received intravenous administrations of dl-MPH, d-threo-methylphenidate (d-MPH), 1-MPH and placebo. The Profile of Mood State (POMS) rating scale was used to estimate pharmacodynamic factors including Anger-Hostility, Confusion-Bewilderment, Depression-Dejection, Fatigue-Inertia, Tension-Anxiety, and Vigor-Activity. In addition composite scores were also produced for "Energy" ("Vigor-Activity" minus "Fatigue-Inertia") and 'Dysphoria" ("Anger-Hostility" plus […] plus "Tension-Anxiety").
This paradox apparently arose because d-MPH enhanced both components of "Energy" (Vigor-Activity and Fatigue-Inertia) over the test period.
The Fatigue-Inertia factor was not a simple rebound phenomenon.
There were very robust effects of drug condition on composite "Dysphoria" ratings. The d-MPH and to a lesser extent dl-MPH both increased "Dysphoria" compared with the placebo or 1-MPH.
Figure 4 depicts the response of the three components of "Dysphoria" (Tension, Depression and Anger) to the four treatments. […] Thus it appears that the overall pharmacodynamic effect of dl-MPH may represent an interaction between the "Dysphoric" effects of d-MPH and the mildly euphoric effects of 1-MPH. It is conceivable that the 1-MPH will emerge as euphoriant or antidepressant in subjects with higher baseline "Dysphoria" scores such as depressed patients in whom the dose of 1-MPH will have to be titrated.

[2] = oral, cited from earlier work
[3] = target: central dopamine transporters (Homo sapiens, UniProt Q01959); conditions: after oral administration of dl-MPH in humans; cited from earlier work
Sequence of central dopamine transporters (Q01959 whole entry): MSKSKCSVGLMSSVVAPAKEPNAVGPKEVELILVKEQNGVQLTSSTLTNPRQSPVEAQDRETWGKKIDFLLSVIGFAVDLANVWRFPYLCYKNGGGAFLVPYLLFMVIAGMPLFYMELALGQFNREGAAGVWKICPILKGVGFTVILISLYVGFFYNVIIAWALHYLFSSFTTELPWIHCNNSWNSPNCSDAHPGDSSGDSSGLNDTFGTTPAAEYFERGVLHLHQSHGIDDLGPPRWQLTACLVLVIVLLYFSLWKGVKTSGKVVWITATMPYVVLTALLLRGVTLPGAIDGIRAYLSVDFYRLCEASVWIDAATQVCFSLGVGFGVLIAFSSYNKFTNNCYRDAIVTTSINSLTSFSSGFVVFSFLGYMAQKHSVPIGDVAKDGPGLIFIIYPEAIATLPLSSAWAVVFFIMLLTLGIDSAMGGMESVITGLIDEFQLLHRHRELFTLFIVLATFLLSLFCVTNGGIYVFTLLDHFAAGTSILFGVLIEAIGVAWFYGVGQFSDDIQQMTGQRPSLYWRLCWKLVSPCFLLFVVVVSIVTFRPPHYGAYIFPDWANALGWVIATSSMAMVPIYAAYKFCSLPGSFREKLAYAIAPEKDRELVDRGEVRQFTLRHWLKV

[4] = mean ±SD in plasma; intravenous 10mg dl-MPH; 11 healthy male volunteers; cited from earlier work
[5] = cited from earlier work

SMILES	composite "Dysphoria" ratings [1]	vigor ratings [1]	effect on "Energy" [1]	rank order of ratings of the three components of "Dysphoria" (Tension, Depression and Anger) [1]	Hamilton depression scale decreased ([2]; 3 subjects, decreased minimally) [%]	Hamilton depression scale decreased ([2]; 7 subjects, depressive symptoms decreased markedly) [%]	benefit in depressed patients ([2]; n = 16)	blocking central dopamine transporters [3]	CLR [4]	MRT [4]	Vdss [4]	absolute bioavailability (F) ([5]; after oral administration of the racemic drug)	CL [4]	concentrations in plasma and brain ([5]; after oral administration of dl-MPH, extensive enantioselective first pass metabolism)
COC(=O)[C@H](c1ccccc1)[C@H]1CCCCN1 (racemic) [dl-MPH, dl-threo-methylphenidate]	increased	significantly different	enhanced	1-MPH < placebo < dl-MPH < d-MPH	< 30	> 55	statistically and clinically significant	–	–	–	–	–	–	–
COC(=O)[C@H](c1ccccc1)[C@H]1CCCCN1 [d-MPH, d-threo-methylphenidate]	increased	significantly different	not strongly energizing	1-MPH < placebo < dl-MPH < d-MPH	–	–	–	very effective	0.005±0.003 l/kg.h^-1	6.53 ± 1.62 h	2.65 ± 1.11 L/kg	0.25	–	–
COC(=O)[C@@H](c1ccccc1)[C@@H]1CCCCN1 [1-MPH, 2S,2'S-methyl 2-phenyl-2-(2'-piperidyl)acetate]	numerically lower	–	–	1-MPH < placebo < dl-MPH < d-MPH	–	–	–	–	0.005±0.003^c l/kg.h^-1	2.44±0.51^b h	1.80±0.91^b L/kg	–	0.73±0.028^h L/kg.h^-1	very low
